Results reported in patent US8202969B2, “Platelet derived growth factor receptor alpha (PDGFRA) polypeptides comprising activating mutation(s)” (Oregon Health & Science University, priority 2002, dated 2012).
Structures can show the parent of a compound that is named as a salt.

Key:
[1] = system: KIT activation loop mutations that involve residues other than aspartic acid 816; settings: cited from earlier work
[2] = system: KIT D816 mutations (D816V, D816Y, D816F, D816H); settings: or equivalent D814 residue in murine KIT; cited from earlier work
wild-type KIT = wild-type KIT (Homo sapiens, UniProt P10721); settings: cited from earlier work
[3] = system: KIT activating mutations involving the extracellular, juxtamembrane and TK1 domain; settings: cited from earlier work
CHO cells = experiment: Tyrosine phosphorylation of wild-type and mutant PDGFRA transiently expressed in CHO cells (immunoblot); format: cell-based, Chinese hamster; settings: for change of tyrosine phosphorylation by ligand stimulation: CHO cells, 100 ng/ml recombinant human PDGF-AA for 10 minutes; for baseline tyrosine phosphorylation: transient expression in CHO cells, serum starved overnight, vehicle
Experimental: FIG. 8: DGFRA mutations in GISTs result in constitutive activation of PDGFRA kinase. […] CHO cells were transiently transfected with expression vectors encoding cDNAs for wild-type or mutant PDGFRA. Transfected cells were serum starved overnight and treated with vehicle or ligand (recombinant human PDGF-AA) for 10 minutes. Whole cell lysates were immunostained sequentially for phospho-tyrosine and PDGFRA. […] In contrast, the mutant PDGFRA proteins display ligand-independent phosphorylation.
PDGFRA mutations were cloned by site-directed mutagenesis of the wild type PDGFRA cDNA. CHO cells were transiently transfected with expression vectors encoding for mutant or wild-type PDGFRA cDNA. Transfected cells were serum starved overnight and stimulated with vehicle or 100 ng/ml recombinant human PDGF-AA for 10 minutes before harvesting cells and preparing whole cell lysates for immunoblotting. The membranes were sequentially immunoblotted with antiserum against phosphorylated tyrosines (PY20 Transduction Laboratories) or total PDGFRA (Santa Cruz sc-338).

Chain of wild-type KIT (P10721 26-976): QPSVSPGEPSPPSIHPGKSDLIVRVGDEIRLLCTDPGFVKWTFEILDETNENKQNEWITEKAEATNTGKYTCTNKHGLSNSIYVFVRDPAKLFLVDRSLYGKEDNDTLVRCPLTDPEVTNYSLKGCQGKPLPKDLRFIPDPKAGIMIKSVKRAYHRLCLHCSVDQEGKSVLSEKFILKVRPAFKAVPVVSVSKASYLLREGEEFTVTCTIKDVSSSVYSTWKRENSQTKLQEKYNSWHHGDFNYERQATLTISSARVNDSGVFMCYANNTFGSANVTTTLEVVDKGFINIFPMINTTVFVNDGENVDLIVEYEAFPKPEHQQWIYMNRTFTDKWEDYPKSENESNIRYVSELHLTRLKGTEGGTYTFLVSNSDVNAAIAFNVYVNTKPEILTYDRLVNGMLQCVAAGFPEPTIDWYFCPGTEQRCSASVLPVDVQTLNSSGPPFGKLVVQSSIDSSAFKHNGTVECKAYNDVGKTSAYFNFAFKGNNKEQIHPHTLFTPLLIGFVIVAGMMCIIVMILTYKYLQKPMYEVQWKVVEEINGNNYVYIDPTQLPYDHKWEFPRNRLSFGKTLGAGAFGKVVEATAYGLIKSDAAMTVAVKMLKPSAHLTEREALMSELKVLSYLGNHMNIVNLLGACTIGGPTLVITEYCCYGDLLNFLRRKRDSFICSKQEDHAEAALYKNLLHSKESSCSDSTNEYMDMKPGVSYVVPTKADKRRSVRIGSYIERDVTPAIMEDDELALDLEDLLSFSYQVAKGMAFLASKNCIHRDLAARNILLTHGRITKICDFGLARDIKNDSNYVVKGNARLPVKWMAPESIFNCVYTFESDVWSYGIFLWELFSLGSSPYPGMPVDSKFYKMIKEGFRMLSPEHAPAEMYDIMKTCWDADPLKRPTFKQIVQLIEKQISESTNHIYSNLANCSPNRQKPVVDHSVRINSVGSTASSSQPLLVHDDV

Compound | activity against other KIT activation loop mutations [1] | activity against KIT D816 mutations [2] | activity against the kinase activity of wild-type KIT (wild-type KIT) | activity against KIT activating mutations involving the extracellular, juxtamembrane and TK1 domain [3] | change of tyrosine phosphorylation by ligand stimulation (CHO cells) | change of tyrosine phosphorylation by ligand stimulation (CHO cells; listed as Wild type PDGFRA) | baseline tyrosine phosphorylation (CHO cells) | baseline tyrosine phosphorylation (CHO cells; listed as Wild type PDGFRA)
Cc1ccc(NC(=O)c2ccc(CN3CCN(C)CC3)cc2)cc1Nc1nccc(-c2cccnc2)n1 [imatinib mesylate] | some activity | no clinically useful activity | highly active | highly active |  |  |  | 
non-mutant PDGFRA: human PDGFRA protein, SEQ ID NO: 2 |  |  |  |  | substantially increased | upregulated | weak | low-level phosphorylation
